Laboratory results taken from patent US11779565B2, “Small organic molecules for use in the treatment of neuroinflammatory disorders” (THE MEDICAL RESEARCH, INFRASTRUCTURE AND HEALTH SERVICES …, priority 2017, dated 2023).
Entries after “also recorded” stand apart in the source; their conditions may differ.

Columns and labels:
RR-EAE mice = test: De novo expression of doublecortin (BrdU+DCX+ cells) in SVZ and SGZ of RR-EAE mice; format: in vivo
Source text: FIGS. 10A-10B—The effect of SM1, SM7, SM9 and SM6 on de novo expression of neuroblasts marker doublecortin in the SVZ. FIG. 10A—Immunofluorescence images showing the labeling of BrdU and doublecortin (DCX) in the SVZ. Images were obtained using Zeiss 710 confocal microscope, coronal sections. LV, lateral ventricle, SVZ, subventricular zone. Scale bar for images: a, c, e, g, i, k, m, o=100 μm (magnification×10), and images: b, d, f, h, j, 1, n, p=20 μm (magnification×63). FIG. 10B: Quantification of BrdU^+ DOC^+ cells in the SVZ. Analysis was performed using image J software on 3 sections from each mouse (3 mice from each group, total n=9). Values are given as mean±SEM and the results of Student's t-test are represented as *p<0.05.
FIGS. 11A-11B—The effect of SM1, SM7, SM9 and SM6 on de novo expression of doublecortin in the SGZ. FIG. 11A: are immunohistochemical images showing the labeling of BrdU^+DCX^+ cells in the SGZ. Images were obtained using Olympus 8.1 microscope (magnification×10). FIG. 11B: Quantification of BrdU^+DCX^+ cells in the SGZ. Analysis was performed using image J software on 3 sections from each mouse (3 mice from each group, total n=9). Values are given as mean±SEM and the results of Student's t-test are represented as *p<0.05.
RR-EAE induced mice were intraperitoneally injected with 250 μg/mouse (Low-L) or 500 μg/mouse (High-H) of the small molecules SM1, SM7, SM9, SM6, or the corresponding vehicle. The SMs were injected each day starting on day 9 post immunization for 30 days. For immunohistochemical analysis, 3 mice of each group were intraperitoneally injected daily with bromo-2′-deoxyuridine (BrdU) starting from day 9 post immunization for 8 following days.
Next, the amount of BrdU DCX cells in the SGZ of mice was evaluated. FIGS. 11A-11B show immunohistochemical labeling of BrdU DCX cells in mice with EAE after treatment with the SMs or with vehicle.

P19 cells = test: In vitro differentiation assay of P19 cells (MAP-2 positive neurons); format: cell-based, murine; details: for MAP-2+ cells: day 8; for effect on neuronal phenotype (number of MAP-2+ cells) vs. RA+BMP-2: RA + rhBMP-2 + SM at 0.625, 1.25 and 2.5 μM
Method: P19 cells were grown in a-minimum essential medium (aMEM) (Gibco) containing 7.5% calf serum, 2.5% fetal calf serum, and 0.4 μl/ml penicillin—streptomycin (Gibco), at 37° C., 5% CO2. Cells were replenished with fresh medium every 48 h.
The medium, including RA, BMP supplements and SMs, was replenished after 48 h. After 4 days, aggregates which formed during RA treatment were dispersed enzymatically (0.05% v/v trypsin-0.02% v/v EDTA) and mechanically and plated in tissue culture grade dishes. At this stage, cells were cultured in RA-, BMP- and SM-free medium, which was refreshed every 48 h. MAP-2 positive neurons were examined at day 8 (i.e., day 4 post-RA treatment) by immunofluorescence. Briefly, at day 7, cells were re-cultured in 24 well-plates with cover slips at a final concentration of 5×10^4 cells/well. On day 8, cells were washed with PBS, fixed with PFA 4% for 15 min, permeabilized with 0.5% Triton Tx, blocked with 10% FCS, 0.1% BSA and 0.05% Tween for 30 min, and stained with MAP2 rabbit mAb (1:100, D5G1, Cell Signaling) for 1 hr. The second antibody step was performed by labeling with Alexa Fluor® 488-conjugated IgG antibody to rabbit for 1 h (1:1000; Molecular Probes USA).
Next, the effect of the small molecules on neurogenesis in a P19 differentiation model was measured. […] Neuronal differentiation is marked by the expression of the neuronal marker MAP-2, while the addition of BMP-2 reduces the levels of this marker. Addition of the murine anti-BMP-2/4 monoclonal antibody reverses the effect of BMP-2 and induces acquisition of neuronal phenotype. Thus, the effect of SM1, SM7 and SM9 on the expression of the neuronal marker MAP-2 in P19 cells was examined in the presence of RA and BMP-2. Three concentrations of the molecules were tested: 0.625 μM, 1.25 μM and 2.5 μM.

[1] = high dose (H) 500 μg/mouse i.p. daily from day 9 for 30 days
[2] = low dose (L) 250 μg/mouse i.p. daily from day 9 for 30 days
[3] = low dose (L) 250 μg/mouse i.p. daily

| SMILES | BrdU+DCX+ cells in the SVZ vs. vehicle (RR-EAE mice; [1]) | BrdU+DCX+ cells in the SVZ vs. vehicle (RR-EAE mice; [2]) | MAP-2+ cells (P19 cells; RA + rhBMP-2 + SM 2.5 μM) | effect on neuronal phenotype (number of MAP-2+ cells) vs. RA+BMP-2 (P19 cells) | BrdU+DCX+ cells in the SGZ vs. vehicle (RR-EAE mice; [3]) | MAP-2+ cells (P19 cells; RA + rhBMP-2 + SM 1.25 μM) | BrdU+DCX+ cells in the SGZ vs. vehicle (RR-EAE mice; high dose (H) 500 μg/mouse i.p. daily) | MAP-2+ cells (P19 cells; RA + rhBMP-2 + SM 0.625 μM (low concentration)) |
| --- | --- | --- | --- | --- | --- | --- | --- | --- |
| COC(=O)c1sccc1N/N=C(\C#N)S(=O)(=O)c1cccs1 [SM1, Methyl 3-[(2E)-2-[cyano(thiophen-2-ylsulfonyl)methylidene]hydrazinyl]thiophene-2-carboxylate] | trend for increased induction | trend for increased induction | 62.2±3.9% | reversed the effect of BMP-2; also recorded: induced neuronal phenotype at all examined concentrations | – | – | – | – |
| O=C(Nc1cccc(C(F)(F)F)c1)c1ccc([N+](=O)[O-])o1 [SM6, N2-[3-(trifluoromethyl)phenyl)-5-nitro-2-furamide] | trend for increased induction | – | – | – | trend for increased | – | – | – |
| N#Cc1c(O)nsc1Nc1ccccc1C(F)(F)F [SM7, 3-hydroxy-5-[2-(trifluoromethyl)aniline]isothiazole-4-carbonitrile] | – | – | No significant effect | reversed the effect of BMP-2; also recorded: induced neuronal phenotype at both the low and the mild concentrations | trend for increased | 76.1±3.1% | – | – |
| CS(=O)(=O)c1noc(-c2ccc(Cl)cc2)c1C#N [SM9, 5-(4-chlorophenyl)-3-methylsulfonyl-1,2-oxazole-4-carbonitrile] | trend for increased induction | significant increase | 80.6±10.0% | reversed the effect of BMP-2 | trend for increased | 76.4±12.6% | significant increased induction | not effective |
